# Columns and labels:
# rat Oatp1b2 = target: T1, rat Oatp1b2 (Rattus norvegicus, UniProt Q9QZX8)
# T1 sequence (Q9QZX8 1-687): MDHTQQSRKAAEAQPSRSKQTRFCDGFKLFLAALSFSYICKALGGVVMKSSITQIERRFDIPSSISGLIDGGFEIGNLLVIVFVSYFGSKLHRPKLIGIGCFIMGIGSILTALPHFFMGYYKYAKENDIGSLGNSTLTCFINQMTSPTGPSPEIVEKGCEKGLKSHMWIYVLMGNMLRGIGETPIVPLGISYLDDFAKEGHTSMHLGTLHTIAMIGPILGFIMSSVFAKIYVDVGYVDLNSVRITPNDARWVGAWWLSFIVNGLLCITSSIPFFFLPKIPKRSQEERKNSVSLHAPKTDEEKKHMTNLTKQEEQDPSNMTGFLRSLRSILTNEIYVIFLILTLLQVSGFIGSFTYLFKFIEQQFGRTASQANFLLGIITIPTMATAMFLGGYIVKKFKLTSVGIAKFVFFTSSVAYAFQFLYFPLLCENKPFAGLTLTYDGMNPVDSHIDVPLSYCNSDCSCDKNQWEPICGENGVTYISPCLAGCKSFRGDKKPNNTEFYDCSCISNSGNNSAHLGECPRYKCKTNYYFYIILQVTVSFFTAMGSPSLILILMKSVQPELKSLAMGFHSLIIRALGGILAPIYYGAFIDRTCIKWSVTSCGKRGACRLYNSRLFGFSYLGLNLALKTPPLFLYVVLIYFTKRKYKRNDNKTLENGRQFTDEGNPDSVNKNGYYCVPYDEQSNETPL
# [1] = target: T2, Organic Anion-Transporting Polypeptide 1B1 (Homo sapiens, UniProt Q9Y6L6); assay: Suspension assay, centrifugation method, Corning TransportoCells OATP1B1*1a; assay type: in vitro ADME; settings: 5× substrate solution containing 25 μM, 10 minutes at 37° C., 600 k cells/well
# T2 construct: host or cells: HEK293 cells, gene delivered by electroporation
# T2 sequence (Q9Y6L6 1-691): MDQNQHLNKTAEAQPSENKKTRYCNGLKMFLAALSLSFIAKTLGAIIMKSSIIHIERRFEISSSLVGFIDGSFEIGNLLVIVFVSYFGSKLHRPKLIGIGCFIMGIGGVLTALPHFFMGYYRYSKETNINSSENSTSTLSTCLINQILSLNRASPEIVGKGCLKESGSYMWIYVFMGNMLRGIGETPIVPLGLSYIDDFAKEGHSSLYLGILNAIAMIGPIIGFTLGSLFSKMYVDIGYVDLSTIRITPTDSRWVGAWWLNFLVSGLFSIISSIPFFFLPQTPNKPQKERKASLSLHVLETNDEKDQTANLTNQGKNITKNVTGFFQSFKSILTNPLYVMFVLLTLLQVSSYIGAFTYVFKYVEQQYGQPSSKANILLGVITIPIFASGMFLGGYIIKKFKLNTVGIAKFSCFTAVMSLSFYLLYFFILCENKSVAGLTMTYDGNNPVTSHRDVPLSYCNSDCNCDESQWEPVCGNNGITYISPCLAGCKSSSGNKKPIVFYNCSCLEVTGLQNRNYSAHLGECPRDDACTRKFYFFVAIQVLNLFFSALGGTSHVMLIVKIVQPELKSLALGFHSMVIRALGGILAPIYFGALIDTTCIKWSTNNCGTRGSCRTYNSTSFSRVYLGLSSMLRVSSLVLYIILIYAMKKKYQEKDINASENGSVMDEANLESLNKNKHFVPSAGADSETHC
# From the text: In this experiment, a suspension assay for characterizing the activity of a drug transporter protein in cryopreserved, Corning® TransportoCells™ was developed. More specifically, the use of a centrifugation method versus a vacuum manifold for separating unreacted substrate in characterizing the activity of Organic Anion-Transporting Polypeptide 1B1 was investigated. Corning® TransportoCells™ transiently transfected with the gene OATP1B1*1a were obtained from Corning Life Sciences (Cat. No. 354859). In the Corning® TransportoCells™, the gene OATP1B1*1a was delivered into HEK293 cells via electroporation and the HEK293 cells were recovered and cryopreserved 1 hour post-electroporation. In order to obtain suitable expression of the Organic Anion-Transporting Polypeptide 1B1 encoded by OATP1B1*1a, the Corning® TransportoCells™ were thawed, cultured, and harvested.
# The cells were cultured in T-175 Vented-Cap Culture Flasks with Poly-D-Lysine (hereinafter, “PDL”; available from Corning Life Sciences, Cat. No. 354539) with plating medium for 48 hours at 37° C. and 8% CO2. The plating medium is detailed in Table 16. After 24 hours, sodium butyrate (obtained from Sigma) was added to the cells to reach final 5 mM. After 48 hours, the cells were rinsed twice with Phosphate-Buffered Saline (hereinafter, “PBS”, obtained from Corning).
# The cells were then harvested with 0.05% Trypsin (obtained from Sigma) and washed once with Hank's Balanced Salt Solution (hereinafter, “HBSS”) buffer (with Ca^2+ and Mg^2+, obtained from Corning). Then, the cells were resuspended in HBSS (obtained from Corning) to a final cell density of 3×10^6 cells/ml. Two suspension assay experiments were then performed to characterize the activity of Organic Anion-Transporting Polypeptide 1B1 in the Corning® TransportoCells™.
# In a first suspension assay experiment, use of a centrifugation method was investigated to separate excess substrate and cells. Referencing FIG. 20, in the first suspension assay experiment, the resuspended Corning® TransportoCells™ were aliquotted (200 μl per well at a density of 600 k cells/well) into either a Corning® 96 Well Clear Round Bottom TC-Treated Microplate (available from Corning Life Sciences, Cat. No. 3799) or a Corning® 96 Well Clear V-Bottom TC-Treated Microplate (available from Corning Life Sciences, Cat. No. 3894). […] The cells were then incubated for 10 minutes at 37° C. After the incubation time, the reaction was stopped by adding ice cold HBSS buffer (50 μl) to the cells and placing the microplates on ice. Then, the microplates were centrifuged at 3000 g for 1 minute at 4° C. […] The cell lysis was then subjected to the appropriate protein analysis and/or fluorescence analysis to characterize the activity of Organic Anion-Transporting Polypeptide 1B1.
# [2] = HEK-293 cells overexpressing the transporter
Compound,Km (rat Oatp1b2) [µM],uptake of substrate (in words) (rat Oatp1b2; [2]),uptake of substrate (in words) (monkey Oatp1b1; [2]),"Km (monkey Oatp1b1; incubation of 5 minutes, Michaelis-Menten kinetics) [µM]",Uptake Activity OATP1B1 ([1]; Round Bottom) [pmol/mg/min],Uptake Ratio ([1]; Round Bottom),Uptake Activity OATP1B1 ([1]; V-Bottom) [pmol/mg/min],Uptake Ratio ([1]; V-Bottom)
C[C@]12CC[C@@H]3c4ccc(O)cc4CC[C@H]3[C@@H]1CC[C@@H]2O[C@@H]1O[C@H](C(=O)O)[C@@H](O)[C@H](O)[C@H]1O [E17βG],9.6 ± 1.9,significant uptake,significant uptake,6.3 ± 1.4,–,–,–,–
fluorescein methotrexate [FMTX],–,–,–,–,0.38,10.9,1.04,102.3

# From patent publication US20170067909A1, “ASSAY-READY RECOMBINANT CELLS TRANSIENTLY OVEREXPRESSING GENES ENCODING DRUG TRANSPORTER PROTEINS AND/OR DRUG METABOLIZING ENZYMES” (Corning Incorporated, priority 2012, published 2017)
